Values joined by “and” are separate entries in the source; they are usually repeats but may differ in a detail not shown here. Equal values may be shown once.

The test system of series [1] is Clostridium difficile strains. The series is described as follows: Susceptibility testing (MIC) by two-fold serial agar dilution, Wilkins-Chalgren Anaerobe agar, anaerobic. The format is cell-based. The method, then:
Susceptibility testing for Clostridium difficile strains was performed by two-fold serial antibiotic dilutions in Wilkins-Chalgren Anaerobe agar under anaerobic conditions. Vancomycin was included as a comparator drug. C. difficile cultures were inoculated onto pre-reduced Braziers (C.C.E.Y.) agar plates and grown at 37° C. for 48 hours under anaerobic conditions. Two to three colonies of the 48 hours cultures were inoculated into 5 ml of pre-reduced Schaedlers Broth and grown at 37° C. for 24 hours under anaerobic conditions. This culture was diluted with pre-reduced 0.9% NaCl to achieve the turbidity of the 0.5 McFarland standard and applied to the drug containing plates at a final inoculum of 10^5 cfu/spot. Drug-free growth control plates were included. The plates were incubated in the anaerobic chamber at 37° C. for 48 hours and examined for growth.
On the technique in general: In agar dilution, organisms are placed on agar that contains the substance at set levels.

Series [2] in a line: Stability to enzymatic digestion in simulated intestinal fluid (SIF). As to conditions: 37° C., HPLC quantification (FIG. 1). In kind it is in vitro ADME. The method, then:
Nisin and the compound of Example 1 were tested for their susceptibility towards enzymatic digestion in the intestine using a simulated intestinal fluid (SIF). The SIF was based on the standard USP solutions for simulated intestinal fluids and its activity was confirmed against Bovine Serum Albumin (Hilger et al, Clin. Exp. Immunol. 2001, 123, 387-94). The compounds were incubated in SIF at 37° C. and their concentrations quantified by analytical HPLC (UV detection at 210 nm using the conditions outline in Table 1).

Another series deals with C. difficile strain 4013. The series is described as follows: Hamster model of C. difficile associated cecitis (clindamycin induced). The format is in vivo. The following applies: three times daily at 10 mg/kg/day, 5-day dosing period, groups of 6. Here is the method:
The in vivo efficacy of the compounds of the invention in the treatment of C. difficile infections was evaluated in the standard animal model for CDAD, clindamycin induced cecitis in the hamster.
Groups of 6 animals were dosed with approximately 10^7 cells of C. difficile strain 4013 and 24 hours later with a subcutaneous dose of 10 mg/kg clindamycin phosphate. After a further 24 hours, the groups were then treated either with vehicle, vancomycin or with the compound of Example 1 three times daily at 10 mg/kg/day.

Series [3] in a line: 7-day toxicity experiment in a rat model. The format is in vivo. Here is the method: The compound of Example 1 was tested in a 7-day toxicity experiment in a rat model. One study used 50 mg/kg/day of material administered intravenously for 7 days. The other study used 200 mg/kg/day of material administered orally for 7 days.
Series [4] is described as follows: Tolerability in the Syrian hamster. The format is in vivo. As to conditions: 50 mg/kg/day orally.
[5] abbreviates: 50 mg/kg/day intravenously for 7 days.
Setting [6] is: 200 mg/kg/day orally for 7 days.

Usually MIC stands for the smallest concentration in the dilution series that meets the test's criterion for growth inhibition. A high value points to a less susceptible organism. For the molecule `CCC(C)[C@@H]1NC(=O)[C@@H]2NC(=O)[C@H](CC(C)C)NC(=O)[C@H](NC(=O)C3CSC[C@H](N)C(=O)N[C@@H](CO)C(=O)NCC(=O)N[C@@H](Cc4c[nH]c5ccccc45)C(=O)N[C@@H](C(C)C)C(=O)N3)[C@H](C)SC[C@H](NC(=O)[C@H](CCC(=O)O)NC1=O)C(=O)NCC(=O)N[C@@H]1C(=O)N[C@@H](CC(C)C)C(=O)N[C@@H](C(C)C)C(=O)N[C@@H](CS[C@H]2C)C(=O)N[C@@H](C)C(=O)N[C@H](C(=O)NCCCCCCCN)CS[C@H]1C` (some centres unmarked) [Example 1, Deoxyactagardine B (7-amino-1-heptylamide monocarboxamide)], the MIC is 0.5, 0.5 μg/ml and 1, 1 μg/ml and 1 μg/ml and 0.5 μg/ml in series [1] (C. diff strain 027Can, listed as Eg 1); 1, 1 μg/ml in series [1] (C. diff strain 027SM); 0.5, 0.5 μg/ml and 0.5 μg/ml and 1 μg/ml and 1, 1 μg/ml in series [1] (C. diff strain 630, listed as Eg 1); 1, 1 μg/ml and 0.5 μg/ml and 1 μg/ml in series [1] (C. diff strain 19126, listed as Eg 1); 1, 1 μg/ml and 1 μg/ml and 0.5 μg/ml in series [1] (C. diff strain 37779, listed as Eg 1); 1, 1 μg/ml in series [1] (C. diff strain B32). Further, the MIC in series [1] (C. diff strain E16, listed as Eg 1) was 1 µg/mL and 2 µg/mL; in series [1] (C. diff strain E101) it was 1, 1 μg/ml; in series [1] (C. diff strain P24) it was 1, 1 μg/ml; in series [1] (C. diff strain P62, listed as Eg 1) it was 2 µg/mL and 1 µg/mL. In addition, the “activity (MIC)” value in series [1] (against many common strains of C. difficile) is no more than 1 µg/mL. Also, in series [2], the “stability in SIF” value was “essentially stable”. In the series on C. difficile strain 4013, the survival result is given as “survived for the duration of the entire 5-day dosing period”. Moreover, the necropsy result in series [3] (setting [5]) and in series [3] (setting [6]) was “no organ damage” throughout. Further, the toxicological effects result in series [3] (setting [5]) and in series [3] (setting [6]) was “No significant toxicological effects” in each case. Besides, the tolerability result in series [4] is “tolerated without obvious signs of toxicity”.

Consider `CN[C@H](CC(C)C)C(=O)N[C@H]1C(=O)N[C@@H](CC(N)=O)C(=O)N[C@H]2C(=O)N[C@H]3C(=O)N[C@H](C(=O)N[C@H](C(=O)O)c4cc(O)cc(O)c4-c4cc3ccc4O)[C@H](O)c3ccc(c(Cl)c3)Oc3cc2cc(c3O[C@@H]2O[C@H](CO)[C@@H](O)[C@H](O)[C@H]2O[C@H]2C[C@](C)(N)[C@H](O)[C@H](C)O2)Oc2ccc(cc2Cl)[C@H]1O` [vancomycin, reference compound], for which the survival result in the series with C. difficile strain 4013 is recorded as “survived for the duration of the entire 5-day dosing period”.

Turning to “Deoxyactagardine B (3-amino-1-propylamide monocarboxamide) [Example 5]”, the MIC in series [1] (C. diff strain 027SM) was 2, 2 μg/ml; in series [1] (C. diff strain 630, listed as Eg 5), 1, 1 μg/ml and 2, 2 μg/ml; in series [1] (C. diff strain 19126, listed as Eg 5), 2, 2 μg/ml and 1, 1 μg/ml; in series [1] (C. diff strain 37779, listed as Eg 5) it was 1, 1 μg/ml and 2, 2 μg/ml; in series [1] (C. diff strain B32), 2, 2 μg/ml; in series [1] (C. diff strain E16, listed as Eg 5) it was 1 µg/mL and 2 µg/mL. In addition, the minimal inhibitory concentration (MIC) is 2, 2 μg/ml in series [1] (C. diff strain E101); 2, 2 μg/ml in series [1] (C. diff strain P24); 2, 2 μg/ml in series [1] (C. diff strain P62).

Turning to “Deoxyactagardine B (12-amino-1-dodecylamide monocarboxamide) [Example 8]”, the MIC in series [1] (C. diff strain 027Can) is 1, 1 μg/ml; in series [1] (C. diff strain 027SM) it was 2, 2 μg/ml; in series [1] (C. diff strain 630, listed as Eg8), 0.5, 0.5 μg/ml and 1, 1 μg/ml; in series [1] (C. diff strain 19126, listed as Eg8), 1, 1 μg/ml and 2, 2 μg/ml; in series [1] (C. diff strain 37779, listed as Eg8), 1, 1 μg/ml and 1 μg/ml and 2 μg/ml; in series [1] (C. diff strain B32, listed as Eg8), 2 µg/mL and 1 µg/mL. Also, the MIC was 2, 2 μg/ml in series [1] (C. diff strain E16); 2, 2 μg/ml in series [1] (C. diff strain E101); 2 µg/mL and 1 µg/mL in series [1] (C. diff strain P24, listed as Eg8); 2, 2 μg/ml in series [1] (C. diff strain P62).

The values above are taken from patent US8741945B2, “Compounds” (Novacta Biosystems Limited, priority 2009, dated 2014).
